From US20120214818A1, “METHODS OF TREATING DIASTOLIC DYSFUNCTION AND RELATED CONDITIONS” (THE BOARD OF TRUSTEES OF THE UNIVERSITY OF ILLINOIS, priority 2009, published 2012)

Tests used:
[1] = system: DOCA-salt and sham mice; test: Echocardiography after chronic administration of ranolazine; type: in vivo, mouse; details: for ES (%): chronic ranolazine in diet (5 mg per 1-g tablet, ~1 g daily) for 7 days
Protocol: A special diet contained 5 mg ranolazine, 0.3 mg P450 inhibitor, and 0.25 mg red food color was pressed into a 1-g nutritionally complete grain-based tablet (Harlan, Madison, Wis.). The control diet contained 0.3 mg P450 inhibitor and 0.25 mg yellow food color pressed into the same type of 1-g tablets. DOCA-salt and sham mice consumed daily ˜1 g of the special diet from postoperative day 11 to 18.
Mice were anesthetized, maintained at 37° C., and studied by echocardiography (Vevo 770, VisualSonics Inc, Toronto, Canada). M-mode images in the parasternal long axis and the left ventricle (LV) short-axis views at the mid-papillary level were taken. Measurements were averaged from three consecutive beats during expiration. LV inflow velocities (E and A waves) were interrogated by conventional pulsed-wave Doppler from the apical four-chamber view. The mitral annulus longitudinal velocities (Sm, E′, and A′) were determined by pulsed-wave tissue Doppler from the apical four-chamber view. Interpretation was done by a two investigators blinded to the treatment groups. First, baseline images were acquired. Subsequently to determine the acute effect, the mice were injected with 30 mg/kg ranolazine by intraperitoneal route, followed by a second echocardiogram 30 min later.
In an additional set of experiments, we treated DOCA-salt mice with ranolazine for 7 days and measured diastolic function using echocardiography to evaluate the effect of chronic ranolazine therapy on myocardial function (Table 5).

[2] = system: DOCA-salt and sham mice; test: Noninvasive echocardiographic assessment of diastolic dysfunction, acute ranolazine; type: in vivo, mouse; details: 30 mg/kg ranolazine intraperitoneal; for E/A, early to late diastolic filling velocity / E/E′ / E′, early septal mitral annulus velocity (TDI) / E′/A′ / Sm, systolic septal mitral annulus velocity (TDI): 30 min; for EF, ejection fraction (Table 3) / FS, fractional shortening: echocardiogram 30 min later
Protocol: Generation of DOCA-salt mouse model: Previously, it was shown that this model leads to mild hypertension, myocardial oxidative stress, and diastolic dysfunction.^20 A gradual and mild elevation in blood pressure was induced by unilateral nephrectomy, subcutaneous implantation of a controlled release deoxycorticosterone acetate (DOCA) pellet (0.7 mg/d; Innovative Research of America, Sarasota, Fla.), and substituting drinking water with 1.05% saline. Control animals underwent a sham operation, had placebo pellet implantation, and received water without salt. Noninvasive assessment of diastolic dysfunction: Mice were anesthetized, maintained at 37° C., and studied by echocardiography (Vevo 770, VisualSonics Inc, Toronto, Canada). M-mode images in the parasternal long axis and the left ventricle (LV) short-axis views at the mid-papillary level. Measurements were averaged from three consecutive beats during expiration. LV inflow velocities (E and A waves) were interrogated by conventional pulsed-wave Doppler from the apical four-chamber view. The mitral annulus longitudinal velocities (Sm, E′, and A′) were determined by pulsed-wave tissue Doppler from the apical four-chamber view. Interpretation was done by two investigators blinded to the treatment groups. First, baseline images were acquired. Subsequently, the mice were injected with 30 mg/kg ranolazine by intraperitoneal route, followed by a second echocardiogram 30 min later. Previously, we have shown that this model leads to mild hypertension, myocardial oxidative stress, and diastolic dysfunction.^20 A gradual and mild elevation in blood pressure was induced by unilateral nephrectomy, subcutaneous implantation of a controlled release deoxycorticosterone acetate (DOCA) pellet (0.7 mg/d; Innovative Research of America, Sarasota, Fla.), and substituting drinking water with 1.05% saline. Control animals underwent a sham operation, had placebo pellet implantation, and received water without salt. Mice were anesthetized, maintained at 37° C., and studied by echocardiography (Vevo 770, VisualSonics Inc, Toronto, Canada). M-mode images in the parasternal long axis and the left ventricle (LV) short-axis views at the mid-papillary level were taken. Measurements were averaged from three consecutive beats during expiration. LV inflow velocities (E and A waves) were interrogated by conventional pulsed-wave Doppler from the apical four-chamber view. The mitral annulus longitudinal velocities (Sm, E′, and A′) were determined by pulsed-wave tissue Doppler from the apical four-chamber view. Interpretation was done by a two investigators blinded to the treatment groups. First, baseline images were acquired. Subsequently to determine the acute effect, the mice were injected with 30 mg/kg ranolazine by intraperitoneal route, followed by a second echocardiogram 30 min later.

[3] = DOCA-salt mice, chronic ranolazine in diet, 7 days
[4] = sham mice, chronic ranolazine in diet, 7 days

COc1ccccc1OCC(O)CN1CCN(CC(=O)Nc2c(C)cccc2C)CC1 (stereo not drawn) [ranolazine]
ES (%) ([1]; DOCA-salt mice): 53.3 ± 1.3% | E/A [1, 3]: 1.84 ± 0.35 | E′, early septal mitral annulus velocity (TDI) [1, 3]: 1.86 ± 0.13 cm/s | Sm, systolic septal mitral annulus velocity (TDI) [1, 3]: 1.82 ± 0.05 cm/s | ES (%) ([1]; sham mice): 49.7 ± 4.9% | E/A [1, 4]: 2.42 ± 0.42 | E/E′ [1, 4]: 28.0 ± 3.45 | E′, early septal mitral annulus velocity (TDI) [1, 4]: 2.11 ± 0.21 cm/s | E′/A′ [1, 4]: 1.03 ± 0.07 | Sm, systolic septal mitral annulus velocity (TDI) [1, 4]: 2.04 ± 0.12 cm/s | E/A, early to late diastolic filling velocity ([2]; DOCA-salt mice): 1.62 ± 0.11 | E/E′ ([2]; DOCA-salt mice): 31.9 ± 2.6 | E′, early septal mitral annulus velocity (TDI) ([2]; DOCA-salt mice): 2.47 ± 0.18 cm/s | E′/A′ ([2]; DOCA-salt mice): 1.31 ± 0.11 | Sm, systolic septal mitral annulus velocity (TDI) ([2]; DOCA-salt mice): 2.15 ± 0.14 cm/s | EF, ejection fraction (Table 3) ([2]; DOCA-salt mice): 46.9 ± 1.6% | FS, fractional shortening ([2]; DOCA-salt mice): 46.9 ± 1.6% | E/A, early to late diastolic filling velocity ([2]; sham mice): 1.63 ± 0.07 | E/E′ ([2]; sham mice): 30.2 ± 1.9 | E′, early septal mitral annulus velocity (TDI) ([2]; sham mice): 2.67 ± 0.11 cm/s | E′/A′ ([2]; sham mice): 1.16 ± 0.02 | Sm, systolic septal mitral annulus velocity (TDI) ([2]; sham mice): 2.31 ± 0.09 cm/s | EF, ejection fraction (Table 3) ([2]; sham mice): 52.8 ± 0.8 % | FS, fractional shortening ([2]; sham mice): 52.8 ± 0.8%
